Measured values published in patent US10143202B2, “Synergistic blends of antimicrobials useful for controlling microorganisms in industrial processes” (Solenis Technologies, L.P., priority 2014, dated 2018).
Converted amounts (≈) assume the structure as drawn.

Key:
Lactobacillus plantarum = experiment: Minimal Inhibitory Concentration (MIC), two-fold dilution series in 96 well microplate, antimicrobial used alone; format: cell-based; conditions: pH 5, 18-24 hours, complete inhibition of growth
Procedure: This is the lowest concentration of a substance or substances which can achieve complete inhibition of growth.
In order to determine the Minimal Inhibitory Concentration, a two-fold dilution series of the antimicrobial is constructed with the dilutions being made in growth media. The dilutions are made in a 96 well microplate such that each well has a final volume of 280 μl of media and antimicrobial. […] After the dilution series is constructed the wells receive an inoculum of microbe suspended in growth media such that the final concentration of microbes in the well is ˜5×10^5 cfu/ml. In these examples the test microbe used is Lactobacillus plantarum. The cultures are incubated at an appropriate temperature for 18-24 hours, and the wells scored as positive or negative for growth based on a visual examination for turbid wells.

Weisella confusa = conditions: cited from earlier work
fermentation = conditions: cited from earlier work

O=C(O)CC(O)(CC(=O)O)C(=O)O [Citric Acid, citric acid]
MIC (Lactobacillus plantarum; Lactiplantibacillus plantarum, read-out: Citric Acid MIC (QC), Used Alone): 6250 µg/mL (≈ 32.5 mM)
Citric Acid MIC (QC), Used Alone (Lactobacillus plantarum): 6250 ppm

[O][Cl+][O-] [ClO2, chlorine dioxide]
ClO2 MIC (QA), Used Alone (Lactobacillus plantarum): 54 ppm

Virginiamycin
Concentration required to inhibit growth of Weisella confusa (Weisella confusa): over 25 mg/L
Concentration that will suppress fermentation (fermentation): over 2 mg/L
